Laboratory results: patent US7303876B2 (Applera Corporation, priority 2000, dated 2007)
Where two headings read alike, the source gives them in different places.

Legend:
Liver tissue [1] = experiment: Nucleic acid release from liver slices, pH 6, 45° C., 30 minutes, surfactants and additives; settings: for amount of nucleic acid released in comparison with surfactant without an additive: FIG. 7
Procedure: To compare CTACl to CTAB, those two surfactants were evaluated in parallel along with hexadecyltrimethylammonium bromide (HDTAB), hexadecyltrimethylammonium chloride (HDTACl), and Sarkosyl. Three additives, phenylglyoxal, acridine orange (e.g., Sigma #A6014), and 1-methyl-2-pyrolidinone, were also evaluated. Phenylglyoxal was tested to determine if it would reduce RNAse activity. […] 1-Methyl-2-pyrrolidinone was tested to see if it would enhance solubility of the sample by various reaction compositions.
Slices of liver-tissue (100-200 mg/sample) were placed into twenty-one Eppendorf tubes. Four hundred microliters of a reaction composition, comprising 100 mM MES, pH 6, 20 mM CaCl2, and 1 mg Proteinase K, was added to each tube.
(§1) The tubes were incubated at 45° C. for 30 minutes with mixing (Eppendorf Thermomixer, Model 5436). Surfactant: protease complexes were solubilized using methods the same as or similar to those described in Example 7. Remaining tissue fragments were removed by centrifugation using methods the same as or similar to those described in Example 7. The supernatant was phenol extracted, isopropanol precipitated, and ethanol washed using methods the same as or similar to those described in Example 6.

slices of liver = experiment: Maceration of liver slices by reaction compositions at 65° C.; settings: 65° C.
Procedure: Initially, a series of reaction compositions were analyzed for their ability to disaggregate a biological sample, e.g., slices of liver. These reaction compositions comprised 100 mM Tris, pH 8.0, 20 mM dithiothreitol (DTT), and optionally,1 mg/ml Proteinase K, surfactants (e.g., cationic, nonionic and anionic detergents), chaotropes, or the additive 1-methyl-2-pyrollidinone (Sigma). Each reaction compositions was placed in a tube with a slice of liver and then incubated at 65° C. The tubes were observed periodically to determine which reaction compositions were able to efficiently macerate the sample.

[2] = Solubility of surfactants (0.5% Sarkosyl, LDS, SDS, CTAB; 5.0% others) in salt solutions; settings: pH 6
Procedure: In certain instances, the solubility of detergents in high salt may relate to on the composition of the salt and the detergent itself. A mixing experiment was performed to examine the solubility of a variety of anionic, cationic, and nonionic surfactants in different salt compositions. […] The salt solutions contained Lil, Nal, KI, Rbl, Csl , GuSCN, GuHCl, or NaClO4, at pH 6.0 or 10.0. […] The solubility of the surfactants was scored as either soluble or insoluble. The solubility of the surfactant in the salt solution was determined initially by visual observations for cloudiness or precipitate formation. The resulting solutions were also centrifuged to verify the absence of a precipitate by the absence of a precipitate pellet.

Liver tissue [3] = experiment: Integrity of nucleic acid released from liver slices with aurintricarboxylic acid, 55° C., 30 minutes; settings: 1% surfactant, FIG. 11
Procedure: Slices of liver tissue (77-186 mg/sample) were placed into twenty-one Eppendorf tubes. To each tube was added 400 μL of a reaction composition comprising 50 mM MES, pH 6.0, 20 mM CaCl2, and additional components as shown in Table 10.
as §1, with “55°” for “45°”, “C.” for “C. for 30 minutes”, “5436) for 30 minutes. The resulting surfactant-protease complex was” for “5436). Surfactant: protease complexes were”, “Undigested” for “Remaining”, “precipitated” for “precipitated,”

Liver tissue [4] = experiment: Nucleic acid release from liver slices, pH 6, 45° C., 20 minutes, surfactants and additives; settings: with Proteinase K, FIG. 5
Procedure: The results from Example 6 indicate that there was significant nuclease activity present in the sample. To reduce the nucleolytic activity of endogenous RNAses, the pH of the reaction composition was lowered to approximately 6.0 and the incubation temperature was decreased to 45° C. Several additives, including phenylglyoxal (Aldrich #14243-3), 1-methyl-2-pyrolidinone, RNA Later (Ambion, #7020), and Streck Tissue Fixitive (Streck Laboratories, #265138) were also tested to evaluate their effect on endogenous RNAse activity in these reaction compositions. Phenylglyoxal is known to reduce ribonuclease activity (see Takahashi, The Structure And Funtion Of Ribonuclease T1. XI. Modification Of The Single Arginine Residue In Ribonuclease T1 By Phenylglyoxal And Glyoxal, J. Biochem (Japan) 68:659-664, 1970). The product literature for RNA Later claims that the reagent stabilizes RNA in tissue and Streck Tissue Fixative is believed to preserve the integrity of tissue.
Slices of liver tissue (100-200 mg/sample) were placed into nineteen Eppendorf tubes. Four hundred microliters of a reaction composition comprising 100 mM MES (Sigma #M-5287), pH 6, 20 mM CaCl2, and 1 mg Proteinase K, was added to each tube.
The tubes were incubated at 45° C. for 20 minutes with mixing (Eppendorf Thermomixer, Model 5436). […] Undigested tissue fragments were removed by centrifugation using the methods the same as or similar to those discussed in Example 6. The supernatant was phenol extracted (saturated with 10 mM Tris HCl , pH 8, 1 mM EDTA; Sigma #P-4557), isopropanol precipitated (Aldrich #19076-4), and ethanol washed using methods the same as or similar to those described in Example 6.

Liver tissue [5] = experiment: Liver tissue disaggregation by 1% surfactant with or without Proteinase K at 60° C.; parameters: Tissue Disaggregation: scale not given here; settings: for Tissue Disaggregation: 60° C., 1% surfactant
Procedure: To evaluate the ability of various cationic surfactants to increase the digestion of tissue by Proteinase K, liver slices were digested using reaction compositions including one of the sixteen surfactants (shown in Table 4), both with and without Proteinase K. The reducing agent dithiothreitol (DTT) was included to evaluate the effect of reducing conditions on tissue digestion. […] One of the sixteen surfactants was added to one pair of tubes to yield a final concentration of 1% surfactant. The seventeenth pair of tubes served as non-surfactant controls. One milligram (mg) of Proteinase K was added to one tube of each of the seventeen pairs.
PK=presence or absence of Proteinase K in the reaction composition; Y=Proteinase K was present; N=Proteinase K was not present in the reaction composition.

[6] = Solubility of 1% cationic surfactants in 5M chaotropic salt solutions containing 2% Tween 20
Text: The solubilities of several cationic surfactants were examined in different chaotropic salt solutions. The cationic surfactants examined were cetyltrimethylammonium bromide (CTAB), cetyltrimethylammonium chloride (CTACl), tetradecyltrimethylammonium bromide (TTAB), tetradecyltrimethylammonium chloride (TTACl), dodecyltrimethylammonium bromide (DTAB), dodecyltrimethylammonium (DTACl), dodecylethyidimethylammonium bromide (DEDTAB), decyltrimethylammonium bromide (D10TAB), and dodecyltriphenylphosphonium bromide (DTPB). Each of the cationic surfactants tested was presented in a 1% concentration. Each of the cationic surfactants was examined in a 5M solution of one of the chaotropic salts containing 2% Tween 20. Each cationic surfactant and salt combination was tested at pH 6 (50 mM MES), pH 8 (50 mM Tris-HCl), and pH 10 (50 mM AMP).

Proteinase K = molecular target: T1, Proteinase K (Parengyodontium album, UniProt P06873); experiment: Effect of surfactants on Proteinase K digestion of dye-labeled casein substrate; format: biochemical; settings: 1% surfactant, 60° C., Proteinase K 0.005-20 μg/ml
T1 construct: purchased Ambion 2546
T1 sequence (P06873 106-384): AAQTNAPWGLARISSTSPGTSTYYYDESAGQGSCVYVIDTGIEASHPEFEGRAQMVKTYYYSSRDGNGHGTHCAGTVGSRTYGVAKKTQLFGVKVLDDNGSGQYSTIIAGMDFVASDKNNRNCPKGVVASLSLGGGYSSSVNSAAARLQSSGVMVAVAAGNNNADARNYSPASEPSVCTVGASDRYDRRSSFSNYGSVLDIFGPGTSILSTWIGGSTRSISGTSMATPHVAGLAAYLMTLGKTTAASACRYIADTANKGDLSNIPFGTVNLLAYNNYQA
Procedure: To test the effect of cationic surfactants on the activity of Proteinase K, a series of reaction compositions were prepared as follows. Reaction compositions comprised: Casein BoDipy conjugate (1 μg, 10 ng/μL), 10 mM Tris, pH 8, 20 mM CaCl2, 1% surfactant (shown in Table 2 below) and a dilution series of Proteinase K at concentrations of 20 μg/ml, 5 μg/ml, 1.25 μg/ml, 0.31 μg/ml, 0.078 μg/ml, 0.02 μg/ml and 0.005 μg/ml. […] Reaction tubes were incubated at 60° C. in a 96-well optical plate (MicroAmp® Optical 96-Well Reaction Plate, Applied Biosystems) and the amount of released fluorescence was measured at the indicated time points using an ABI Prism 7700.

[7] = Fifteen Minutes Incubation, Proteinase K not present (N)
[8] = Fifteen Minutes Incubation, Proteinase K present (Y)
[9] = Fifty-Two Minutes Incubation, Proteinase K not present (N)
[10] = Fifty-Two Minutes Incubation, Proteinase K present (Y)
[11] = 5M chaotropic salts, 2% Tween 20

For `CN1CCCC1=O` [1-methyl 2-pyrrolidinone, 1-methyl-2-pyrolidinone], the “amount of nucleic acid released in comparison with surfactant without an additive” value (Liver tissue [1]; 10% additive with 1% CTACl) was “greater”, the “amount of nucleic acid released in comparison with surfactant without an additive” value (Liver tissue [1]; 10% additive with 1% HDTAB) was “less” and the “maceration of liver slice” value (slices of liver; No Proteinase K, 16-24 hr, additive 2%) was 0%.

In the case of `CCCCCCCCCCCCCCCC[N+](C)(C)C.[Br-]` [CTAB, cetyltrimethylammonium bromide], the “maceration of liver slice” value (slices of liver; 1 mg/ml Proteinase K, 16-24 hr, additive 0.1%) is reported as 100%, the “maceration of liver slice” value (slices of liver; 1 mg/ml Proteinase K, 16-24 hr, additive 1%) is reported as 100% and the “maceration of liver slice” value (slices of liver; 1 mg/ml Proteinase K, 1 hr, additive 0.1%) is reported as 100%. The “maceration of liver slice” value (slices of liver; 1 mg/ml Proteinase K, 1 hr, additive 1%) was 100%, the “ability to macerate the liver sample (in words)” value (slices of liver) was “most effectively macerated the sample” and the “effect on the proteolytic activity of Proteinase K” value (slices of liver; liver slices) was “appeared to enhance the proteolytic activity of Proteinase K”. The Solubility of surfactant [2] was “S”, the “nucleic acid released, surfactant in reaction composition with aurintricarboxylic acid” value (“nucleic acid released, surfactant” below) (Liver tissue [3]) was “released a large amount of high integrity nucleic acid” and the “release of A260 absorbing material from the sample” value (shortened to “release of A260 absorbing material”) (Liver tissue [4]) was “released A260 absorbing material”. For the same compound, the “Tissue Disaggregation” value (Liver tissue [5]; [7]) was 0, the “Tissue Disaggregation” value (Liver tissue [5]; [8]) was 4 and the “Tissue Disaggregation” value (Liver tissue [5]; [9]) was 0. The “Tissue Disaggregation” value (Liver tissue [5]; [10]) was 4, the “disaggregation of the tissue sample (in words)” value (Liver tissue [5]; combination with Proteinase K, 15 and 52 minutes) was “total disaggregation” and the “disaggregation of the tissue sample (in words)” value (Liver tissue [5]; surfactant alone, no Proteinase K) was “no apparent sample disaggregation”.

With `CCCCCCCCCCCCCCCC[N+](C)(C)C.[Cl-]` [CTACl, cetyltrimethylammonium chloride] the “high molecular weight nucleic acid by gel electrophoresis” value (Liver tissue [1]; with either 1-methy-2-pyrolidinone or acridine orange) was “High molecular weight nucleic acid was also present”, the “nucleic acid released, surfactant” value (Liver tissue [3]) was “released a large amount of high integrity nucleic acid” and the “release of A260 absorbing material” value (Liver tissue [4]) was “released A260 absorbing material”.

With `CCCCCCCCCCCC[N+](C)(C)CC.[Br-]` [DEDTAB, dodecylethyldimethylammonium bromide] the “relative solubility in chaotropic salt solutions (in words)” value (shortened to “relative solubility”) [6, 11] was “more soluble than larger surfactants”.

For `CCCCCCCCCCCC[N+](C)(C)C.[Cl-]` [DTACl, dodecyltrimethylammonium chloride], the “relative solubility” value [6, 11] was “more soluble than larger surfactants”.

In the case of `CCCCCCCCCCCC[P+](c1ccccc1)(c1ccccc1)c1ccccc1.[Br-]` [DTPB, dodecyltriphenylphosphonium bromide], the “relative solubility” value [6] is reported as “more soluble than larger surfactants”.

For `CCCCCCCCCCCCCCCC[N+](C)(C)C.[Br-]` [Hexadecyltrimethylammonium bromide, hexadecyltrimethylammonium bromide], the “high molecular weight nucleic acid by gel electrophoresis” value (Liver tissue [1]; all reaction compositions containing the surfactant, FIG. 8) was “high molecular weight nucleic acid was apparent”, the “Tissue Disaggregation” value (Liver tissue [5]; [7]) was 0 and the “Tissue Disaggregation” value (Liver tissue [5]; [8]) was 0. For the same compound, the “Tissue Disaggregation” value (Liver tissue [5]; [9]) was 0 and the “Tissue Disaggregation” value (Liver tissue [5]; [10]) was 1.

For `CCCCCCCCCCCCOS(=O)(=O)[O-].[Na+]` [SDS, sodium dodecyl sulfate], the “effect on Proteinase K activity on the casein substrate” value (Proteinase K) was “enhances the activity of Proteinase K”, the “maceration of liver slice” value (slices of liver; 1 mg/ml Proteinase K, 2-5 hr, additive 1%) was 50% and the “maceration of liver slice” value (slices of liver; No Proteinase K, 2-5 hr, additive 1%) was 0%. The “nucleic acid released, surfactant” value (Liver tissue [3]) was “less nucleic acid was released”, the “release of A260 absorbing material” value (Liver tissue [4]) was “released A260 absorbing material” and the “Tissue Disaggregation” value (Liver tissue [5]; [7]) was 0. For the same compound, the “Tissue Disaggregation” value (Liver tissue [5]; [8]) was 3, the “Tissue Disaggregation” value (Liver tissue [5]; [9]) was 0 and the “Tissue Disaggregation” value (Liver tissue [5]; [10]) was 3.

In the case of `CCCCCCCCCC[N+](C)(C)C.[Br-]` [Sample D10TAB, decyltrimethylammonium bromide], the “relative solubility” value [6] is reported as “more soluble than larger surfactants”.

In the case of `CCCCCCCCCCCC(=O)N(C)CC(=O)[O-].[Na+]` [Sarkosyl, sodium N-lauroylsacrosinate], the “maceration of liver slice” value (slices of liver; No Proteinase K, 72 hr, additive 2%) is reported as 0% and the “release of A260 absorbing material” value (Liver tissue [4]) is reported as “released A260 absorbing material”.
